From patent US20250171420A1 (Monte Rosa Therapeutics, Inc., priority 2022, published 2025)

Experiments:
SKCO1 cell line = experiment: Growth inhibition, CyQUANT Direct Cell Proliferation Assay, SKCO1; assay type: cell-based; settings: Homo sapiens, SK-CO-1; SKCO1, 120 to 168 hours; read-out: SKCO1 GI50
In short: (§1)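 Cells seeded 300 to 1,800 per well, day-0 CyQUANT Direct read after overnight attachment; 9-point 3-fold dilutions from 30 μM top concentration, 120 to 168 h exposure, 0.3% DMSO control. Fluorescence Ex/Em 480/520 nm; growth inhibition normalised to day-0 and untreated day-N signals, GI50 at 50% of untreated control.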

LS174T cell line = experiment: Growth inhibition, CyQUANT Direct Cell Proliferation Assay, LS174T; assay type: cell-based; settings: Homo sapiens, 120 to 168 hours, read-out: LS174T GI50
In short: as §1

CRBN/DDB1 = CRBN/DDB1 (Homo sapiens, UniProt Q96SW2); experiment: HTRF binding assay (displacement of Cy5-thalidomide probe from CRBN/DDB1); settings: CRBN/DDB1 2.5 nM, Cy5-Thalidomide 100 nM, 30 min; geometric mean; read-out: HTRF_Thali_Disp_DR_geo_IC50
CRBN/DDB1, sequence (Q96SW2 whole entry, species assumed): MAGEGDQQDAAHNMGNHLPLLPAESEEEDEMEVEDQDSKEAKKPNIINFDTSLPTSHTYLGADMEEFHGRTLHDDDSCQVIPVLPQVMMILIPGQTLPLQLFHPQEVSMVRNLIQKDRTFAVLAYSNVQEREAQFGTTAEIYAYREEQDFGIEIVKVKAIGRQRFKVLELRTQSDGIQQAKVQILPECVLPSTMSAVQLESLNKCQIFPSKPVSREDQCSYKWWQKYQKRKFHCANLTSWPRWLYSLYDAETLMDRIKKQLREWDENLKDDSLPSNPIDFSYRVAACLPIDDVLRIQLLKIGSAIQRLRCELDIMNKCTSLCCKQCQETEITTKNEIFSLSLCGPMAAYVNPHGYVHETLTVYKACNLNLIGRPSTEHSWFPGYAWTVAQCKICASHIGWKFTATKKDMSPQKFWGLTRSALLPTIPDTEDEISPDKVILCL
CRBN/DDB1, sequence (Q16531 whole entry partner, species assumed): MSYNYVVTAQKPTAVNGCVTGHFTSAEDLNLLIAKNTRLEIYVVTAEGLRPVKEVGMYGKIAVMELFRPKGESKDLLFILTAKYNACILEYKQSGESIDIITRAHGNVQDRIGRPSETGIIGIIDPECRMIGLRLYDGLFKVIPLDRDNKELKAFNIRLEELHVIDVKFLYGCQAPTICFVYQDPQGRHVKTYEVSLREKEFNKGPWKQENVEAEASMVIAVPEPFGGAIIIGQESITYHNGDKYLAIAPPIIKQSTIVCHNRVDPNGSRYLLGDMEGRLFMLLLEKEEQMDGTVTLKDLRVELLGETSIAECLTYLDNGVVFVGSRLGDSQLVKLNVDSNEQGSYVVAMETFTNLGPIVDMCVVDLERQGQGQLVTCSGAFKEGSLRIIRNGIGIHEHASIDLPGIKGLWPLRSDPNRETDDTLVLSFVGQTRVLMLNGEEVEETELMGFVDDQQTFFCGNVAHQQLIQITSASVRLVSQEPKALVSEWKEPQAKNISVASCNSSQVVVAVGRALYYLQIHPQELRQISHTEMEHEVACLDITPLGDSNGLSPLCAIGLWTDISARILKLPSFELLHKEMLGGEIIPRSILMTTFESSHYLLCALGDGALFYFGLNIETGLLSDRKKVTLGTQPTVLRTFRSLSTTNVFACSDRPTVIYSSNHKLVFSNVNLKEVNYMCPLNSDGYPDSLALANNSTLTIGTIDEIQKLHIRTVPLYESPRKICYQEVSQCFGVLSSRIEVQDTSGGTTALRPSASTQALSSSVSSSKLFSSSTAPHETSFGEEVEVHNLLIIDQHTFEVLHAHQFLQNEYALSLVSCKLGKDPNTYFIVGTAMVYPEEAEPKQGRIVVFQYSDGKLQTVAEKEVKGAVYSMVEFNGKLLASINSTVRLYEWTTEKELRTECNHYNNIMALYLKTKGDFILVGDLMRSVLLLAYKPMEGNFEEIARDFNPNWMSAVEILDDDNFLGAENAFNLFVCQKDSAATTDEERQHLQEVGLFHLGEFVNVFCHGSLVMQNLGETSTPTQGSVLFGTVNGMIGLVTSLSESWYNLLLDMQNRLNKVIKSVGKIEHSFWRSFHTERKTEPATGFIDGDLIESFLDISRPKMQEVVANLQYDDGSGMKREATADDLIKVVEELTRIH
In short: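 Compounds in a 10-point threefold dilution series were incubated 30 min at ambient temperature with 2.5 nM CRBN/DDB1, 100 nM Cy5-thalidomide probe and terbium anti-His donor (HEPES/NaCl/TCEP/EDTA/Tween20 buffer). IC50 came from 4-parameter fits of the 665/620 nm HTRF ratio; Ki used Cheng-Prusoff on geometric-mean IC50.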

GI50 (SKCO1 cell line): < 0.1 µM
IC50 (CRBN/DDB1): 0.1 to 1 µM
SMILES: C[C@@H]1Cc2ccccc2N1C(=O)Nc1ccc2c(c1)CN(C1CCC(=O)NC1=O)C2=O (stereo partly drawn) [Compound 102, (2R)—N-(2-(2,6-dioxopiperidin-3-yl)-1-oxoisoindolin-5-yl)-2-methylindoline-1-carboxamide]
GI50 (LS174T cell line): 0.1 to 1 µM
